According to patent publication US11008323B2, “Substituted tricyclic 1,4-benzodiazepinone derivatives as allosteric modulators of group II metabotropic glutamate receptors” (Domain Therapeutics, priority 2015, dated 2021):

Assays:
human mGluR3 (hmGluR3) = target: T1, human mGluR3 (hmGluR3) (Homo sapiens, UniProt Q14832); test: Human mGluR3 positive allosteric modulator evaluation using Ca++ functional assay; assay type: cell-based; conditions: hmGluR3 transiently over-expressed in HEK-293 cells; stimulated by EC50 glutamate concentration; intracellular Ca2+ (Fluo4AM, FLIPR Tetra)
T1 construct: expressed in transfected cells; host or cells: HEK-293 cells, transient co-transfection by electroporation
Outline: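 HEK-293 cells transiently co-expressing hmGluR3, a chimeric G protein and two glutamate transporters; Fluo4 calcium read on FLIPR. Compound alone for 10 min (agonist), then EC50 glutamate for 3 min (PAM); 20-point curves gave EC50, duplicate, two independent runs.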

striatal primary neurons = test: NMDA-induced neurotoxicity assay on striatal primary neurons (MTT test); assay type: cell-based, mouse; conditions: 24 hours
Procedure: Primary mouse neurons were incubated with vehicle or NMDA (60 μM)+vehicle or example 63 or LY379268 (mixed mGluR2/3 agonist used as positive control) for 24 hours. Tests were performed in triplicate. Neuron viability was measured using a MTT test.

cortical primary neurons = test: NMDA-induced neurotoxicity assay on cortical primary neurons (MTT test); assay type: cell-based, mouse; conditions: 24 hours
Procedure: Primary mouse neurons were incubated with vehicle or NMDA (60 μM)+vehicle or example 207 or LY379268 (mixed mGluR2/3 agonist used as positive control) for 24 hours. Tests were performed in triplicate. Neuron viability was measured using a MTT test.

[1] = alone, in absence of NMDA challenge, 30 nM to 30 μM

T1 sequence (Q14832 23-879): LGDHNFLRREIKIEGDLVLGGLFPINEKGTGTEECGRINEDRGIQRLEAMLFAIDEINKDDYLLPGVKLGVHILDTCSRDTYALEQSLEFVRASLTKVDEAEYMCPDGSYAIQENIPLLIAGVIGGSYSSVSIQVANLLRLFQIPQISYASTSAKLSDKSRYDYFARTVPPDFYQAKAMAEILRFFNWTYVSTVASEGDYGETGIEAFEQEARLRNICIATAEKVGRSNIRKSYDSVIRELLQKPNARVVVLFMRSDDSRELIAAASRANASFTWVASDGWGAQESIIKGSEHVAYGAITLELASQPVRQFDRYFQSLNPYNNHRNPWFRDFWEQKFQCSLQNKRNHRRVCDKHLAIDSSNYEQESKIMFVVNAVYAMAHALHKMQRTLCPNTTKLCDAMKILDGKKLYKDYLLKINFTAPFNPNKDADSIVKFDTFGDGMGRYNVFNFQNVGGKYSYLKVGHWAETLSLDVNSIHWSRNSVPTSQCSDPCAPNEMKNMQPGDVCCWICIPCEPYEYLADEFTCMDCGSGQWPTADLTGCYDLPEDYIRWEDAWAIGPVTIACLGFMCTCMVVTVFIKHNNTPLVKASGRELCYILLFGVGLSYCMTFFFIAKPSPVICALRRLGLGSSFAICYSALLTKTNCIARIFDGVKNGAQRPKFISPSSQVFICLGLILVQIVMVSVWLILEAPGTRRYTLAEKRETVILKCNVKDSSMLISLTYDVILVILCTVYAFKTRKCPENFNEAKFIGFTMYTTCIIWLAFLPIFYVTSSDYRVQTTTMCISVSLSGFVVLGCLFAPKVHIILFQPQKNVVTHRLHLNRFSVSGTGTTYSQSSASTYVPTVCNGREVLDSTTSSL

Row | SMILES | EC50 (human mGluR3 (hmGluR3)) [nM] | melting point [°C] | other results
1 | CN1C(=O)c2cccn2-c2cc(-c3ccc(F)cn3)ccc2C12CC2 [Example 63, 5-Methyl-9-(5-fluoropyridin-2-yl)-spiro[benzo[f]pyrrolo[1,2-a][1,4]diazepine-6,1′-cyclopropan]-4(5H)-one] | < 100 | 148 to 156 | toxicity induced by NMDA (neuroprotection), striatal primary neurons (striatal primary neurons; NMDA 60 μM, effect tending to disappear at 30 μM): reduces in a dose-dependent manner the toxicity induced by NMDA up to 10 μM; toxicity on striatal primary neuron viability (striatal primary neurons; [1]): no toxicity
2 | CN1C(=O)c2cc(-c3ccccc3)nn2-c2cc(-c3cccc(C(=O)O)c3)ccc2C12CC2 [Example 133, 3-(5-methyl-4-oxo-2-phenyl-4,5-dihydrospiro[benzo[f]pyrazolo[1,5-a][1,4]diazepine-6,1′-cyclopropan]-9-yl)benzoic acid] | < 100 | 211 to 217 | –
3 | CN1C(=O)c2cc(-c3ccccc3)nn2-c2cc(N3CCCC3)ccc2C12CC2 [Example 139, 5-Methyl-2-phenyl-9-(pyrrolidin-1-yl)-spiro[benzo[f]pyrazolo[1,5-a][1,4]diazepine-6,1′-cyclopropan]-4(5H)-one] | > 1000 | 226 to 230 | –
4 | CN1C(=O)c2cc(-c3ccccc3)nn2-c2cc(-c3cccc(S(=O)(=O)N(C)C)c3)ccc2C12CC2 [Example 142, N,N-dimethyl-3-(5-methyl-4-oxo-2-phenyl-4,5-dihydrospiro[benzo[f]pyrazolo[1,5-a][1,4]diazepine-6,1′-cyclopropan]-9-yl)benzenesulfonamide] | 100 to 1000 | 182 to 189 | –
5 | Cc1ncccc1-c1ccc2c(c1)-n1cc(C(=O)O)cc1C(=O)N(C)C21CC1 [Example 176, 5-Methyl-9-(2-methylpyridin-3-yl)-4-oxo-4,5-dihydrospiro[benzo[f]pyrrolo[1,2-a][1,4]diazepine-6,1′-cyclopropane]-2-carboxylic acid] | 100 to 1000 | > 250 | –
6 | CN1C(=O)c2cc(-c3ncc[nH]3)cn2-c2cc(-c3ccc(F)nc3)ccc2C12CC2 [Example 186] | < 100 | > 250 | –
7 | CN1C(=O)c2cc(-c3nnco3)cn2-c2cc(-c3ccc(F)nc3)ccc2C12CC2 [Example 187] | < 100 | 160 to 175 | –
8 | [2H]C([2H])([2H])N1C(=O)c2cc(-c3nnco3)cn2-c2cc(-c3ccc(F)nc3)ccc2C12CC2 [Example 188] | < 100 | > 250 | –
9 | Cc1ccc(-c2ccc3c(c2)-n2cc(CO)cc2C(=O)N(C)C32CC2)cn1 [Example 202] | < 100 | 144 to 154 | –
10 | N[C@@]1(C(=O)O)CO[C@H]2[C@H](C(=O)O)[C@H]21 [LY379268] | – | – | NMDA-induced toxicity, striatal primary neurons (striatal primary neurons; at 1 μM, NMDA 60 μM): decreases NMDA-induced toxicity; toxicity alone, striatal primary neurons (striatal primary neurons; reference alone): no toxicity alone; NMDA-induced toxicity, cortical primary neurons (cortical primary neurons; at 1 μM, NMDA 60 μM): decreases NMDA-induced toxicity; toxicity alone, cortical primary neurons (cortical primary neurons; reference alone): no toxicity alone
11 | CN[C@H](CC(=O)O)C(=O)O [NMDA, N-methyl-D-aspartate] | – | – | reduction of the neuron viability, striatal primary neurons (striatal primary neurons; NMDA 60 μM + vehicle): ~70%; reduction of the neuron viability, cortical primary neurons (cortical primary neurons; NMDA 60 μM + vehicle): ~50%

Second part, led by results:

Row | EC50 (human mGluR3 (hmGluR3)) [nM] | melting point [°C] | SMILES | other results
12 | 100 to 1000 | > 250 | COc1ccc(-c2ccc3c(c2)-n2nc(-c4ccccc4)cc2C(=O)N(C)C32CC2)cc1 [Example 128, 9-(4-Methoxy-phenyl)-5-methyl-2-phenyl-spiro[benzo[f]pyrazolo[1,5-a][1,4]diazepine-6,1′-cyclopropan]-4(5H)-one] | –
13 | 100 to 1000 | 185 to 190 | CN1C(=O)c2cc(-c3ccccc3)nn2-c2cc(-c3cccc(C#N)c3)ccc2C12CC2 [Example 129, 9-(3-Cyano-phenyl)-5-methyl-2-phenyl-spiro[benzo[f]pyrazolo[1,5-a][1,4]diazepine-6,1′-cyclopropan]-4(5H)-one] | –
14 | 100 to 1000 | 214 to 220 | CN1C(=O)c2cc(-c3ccccc3)nn2-c2cc(-c3cnco3)ccc2C12CC2 [Example 132, 9-(Oxazol-5-yl)-5-methyl-2-phenyl-spiro[benzo[f]pyrazolo[1,5-a][1,4]diazepine-6,1′-cyclopropan]-4(5H)-one] | –
15 | 100 to 1000 | 199 to 208 | CN1C(=O)c2cc(-c3ccccc3)nn2-c2cc(-c3cn[nH]c3)ccc2C12CC2 [Example 134, 9-(1H-pyrazol-4-yl)-5-methyl-2-phenyl-spiro[benzo[f]pyrazolo[1,5-a][1,4]diazepine-6,1′-cyclopropan]-4(5H)-one] | –
16 | 100 to 1000 | 218 to 224 | CN1C(=O)c2cc(-c3ccccc3)nn2-c2cc(-c3cc[nH]n3)ccc2C12CC2 [Example 136, 9-(1H-pyrazol-3-yl)-5-methyl-2-phenyl-spiro[benzo[f]pyrazolo[1,5-a][1,4]diazepine-6,1′-cyclopropan]-4(5H)-one] | –
17 | > 1000 | 196 to 200 | CN1C(=O)c2cc(-c3ccccc3)nn2-c2cc(C#N)ccc2C12CC2 [Example 137, 9-Cyano-5-methyl-2-phenyl-spiro[benzo[f]pyrazolo[1,5-a][1,4]diazepine-6,1′-cyclopropan]-4(5H)-one] | –
18 | > 1000 | 212 to 218 | CN1C(=O)c2cc(-c3ccccc3)nn2-c2ccccc2C12CC2 [Example 138, 5-Methyl-2-phenyl-spiro[benzo[f]pyrazolo[1,5-a][1,4]diazepine-6,1′-cyclopropan]-4(5H)-one] | –
19 | 100 to 1000 | 198 to 205 | CN1C(=O)c2cc(-c3ccccc3)cn2-c2cc(-c3cccc(S(=O)(=O)N(C)C)c3)ccc2C12CC2 [Example 141, N,N-dimethyl-3-(5-methyl-4-oxo-2-phenyl-4,5-dihydrospiro[benzo[f]pyrrolo[1,2-a][1,4]diazepine-6,1′-cyclopropan]-9-yl)benzenesulfonamide] | –
20 | 100 to 1000 | > 250 | Cc1ncccc1-c1ccc2c(c1)-n1cc(C#N)cc1C(=O)N(C)C21CC1 [Example 153] | –
21 | < 100 | > 250 | Cc1ncccc1-c1ccc2c(c1)-n1cc(-c3nnco3)cc1C(=O)N(C)C21CC1 [Example 185] | –
22 | < 100 | > 250 | CN(C)c1ccc(-c2ccc3c(c2)-n2cc(-c4nnco4)cc2C(=O)N(C)C32CC2)cn1 [Example 190] | –
23 | < 100 | > 250 | CN1C(=O)c2cc(-c3nnco3)cn2-c2cc(-c3cccc(C#N)c3)ccc2C12CC2 [Example 192] | –
24 | 100 to 1000 | > 250 | CN1C(=O)c2cc(-c3nnco3)cn2-c2cc(-c3cccnn3)ccc2C12CC2 [Example 193] | –
25 | < 100 | 71 to 80 | COCc1cc2n(c1)-c1cc(-c3ccc(F)nc3)ccc1C1(CC1)N(C)C2=O [Example 207] | toxicity induced by NMDA (neuroprotection), cortical primary neurons (cortical primary neurons; NMDA 60 μM, effect tending to disappear at higher concentrations): reduces in a dose-dependent manner the toxicity induced by NMDA up to 1 μM; toxicity on cortical primary neuron viability (cortical primary neurons; [1]): no toxicity
26 | > 1000 | 127 to 130 | CN1C(=O)c2cccn2-c2ccccc2C1(C)C [Example 221, 5,6,6-Trimethyl-5,6-dihydro-benzo[f]pyrrolo[1,2-a][1,4]diazepin-4-one] | –
